Target: T1, human 20S proteasome (H20S) (Homo sapiens, UniProt P28074+Q99436)
T1 construct: gene PSMB5; with Proteasome subunit beta type-6 (caspase-like site); Proteasome subunit alpha type-6; Proteasome subunit alpha type-2; Proteasome subunit alpha type-4; Proteasome subunit alpha type-7; Proteasome subunit alpha type-5; Proteasome subunit alpha type-1; Proteasome subunit alpha type-3; Proteasome subunit beta type-3; Proteasome subunit beta type-2; Proteasome subunit beta type-1; Proteasome subunit beta type-4
Experiment: inhibition of boc-RLR-AMC hydrolysis
Format: biochemical

CC(=O)N[C@@H](CC(C)C)C(=O)N[C@@H](CC(C)C)C(=O)N[C@H](C=O)CCCNC(=N)N [leupeptin]
inhibition at 40 µM: 94 to 100%

Source: paper PMC9287138, “Proteasome activator 28γ (PA28γ) allosterically activates trypsin-like proteolysis by binding to the α-ring of the 20S proteasome” (The Journal of Biological Chemistry, 2022)
